Experimental data from patent US20240376099A1, “COMPOUNDS AND COMPOSITIONS AS INHIBITORS OF ENDOSOMAL TOLL-LIKE RECEPTORS” (Novartis AG, priority 2016, published 2024).

Molecular target: T1, TLR8 (Homo sapiens, UniProt Q9NR97)
T1 sequence (Q9NR97 27-1041): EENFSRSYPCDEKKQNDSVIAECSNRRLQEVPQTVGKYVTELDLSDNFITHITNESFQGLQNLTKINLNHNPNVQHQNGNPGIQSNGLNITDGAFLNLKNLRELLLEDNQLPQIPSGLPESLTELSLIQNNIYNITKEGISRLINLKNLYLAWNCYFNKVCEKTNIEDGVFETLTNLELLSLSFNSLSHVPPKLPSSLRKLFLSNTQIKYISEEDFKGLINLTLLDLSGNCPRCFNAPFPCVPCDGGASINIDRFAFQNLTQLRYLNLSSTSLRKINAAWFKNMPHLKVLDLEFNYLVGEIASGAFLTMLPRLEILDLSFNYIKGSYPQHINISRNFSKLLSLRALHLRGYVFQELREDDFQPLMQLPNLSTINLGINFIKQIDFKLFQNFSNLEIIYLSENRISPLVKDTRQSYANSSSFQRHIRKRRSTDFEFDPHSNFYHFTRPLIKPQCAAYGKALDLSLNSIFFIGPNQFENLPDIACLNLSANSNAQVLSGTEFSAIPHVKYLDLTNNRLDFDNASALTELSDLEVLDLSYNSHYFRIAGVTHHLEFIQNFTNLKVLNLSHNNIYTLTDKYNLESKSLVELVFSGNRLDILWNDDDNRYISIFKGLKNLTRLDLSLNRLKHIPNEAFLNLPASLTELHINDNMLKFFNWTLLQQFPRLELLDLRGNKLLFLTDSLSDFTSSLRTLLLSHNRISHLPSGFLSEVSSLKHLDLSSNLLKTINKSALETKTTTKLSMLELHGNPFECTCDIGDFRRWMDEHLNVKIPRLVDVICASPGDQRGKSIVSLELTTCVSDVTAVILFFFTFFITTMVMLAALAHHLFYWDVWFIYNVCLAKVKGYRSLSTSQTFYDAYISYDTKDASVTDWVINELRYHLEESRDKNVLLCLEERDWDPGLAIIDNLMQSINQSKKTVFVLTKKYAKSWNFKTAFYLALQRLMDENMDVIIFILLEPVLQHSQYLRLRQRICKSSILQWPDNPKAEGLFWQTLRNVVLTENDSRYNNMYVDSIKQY
Test: THP-1 TLR8 Antagonist TNFalpha TR-FRET Assay
Type: cell-based
Design: endogenous in cells
Details: THP-1 cells with R848 agonist, 18-20 hrs; TNFalpha TR-FRET read-out
Method: Cell-based assay: • 1) THP-1cells were cultured in RPMI 1640 with 10% FBS, 10 mM HEPES, 1 mM Sodium Pyruvate, 1% Penicillin-Streptomycin L-glutamine, and 1% Non-Essential Amino Acids; • 2) 3 sets of different passages of THP-1cells in assay media were pooled, counted, and resuspended in the same media as culture media, but with 5% FBS; • 3) Cells were diluted to 100,000 cells/well (30 μl/well) and the R848 agonist was diluted to 25 μM in 10 μl/well in media; • 4) The cell and agonist dilutions were combined and 40 μl/well were added to 384-well flat bottom Greiner assay plates containing test compounds in DMSO, which were Echo pre-spotted at 50 nL per well with a 8 mM top dose and 10 point 1:3 serial dilutions—10 μM final top dose; • 5) The plates were incubated overnight for 18-20 hrs at 37 degrees with 5% CO2; • 6) The plates were then centrifuged at 1000 rpm for 2 min at rt; • 7) 10 μl/well of supernatants were transferred to 384-well low volume white Greiner proxiplates; and • 8) TNFα levels were measured using the TR-FRET assay described below.
• 1) Cisbio Human TNFalpha kit, 20,000 tests (62TNFPEC), and Greiner Bio-One LIA-white TC 384 well small volume plates (cat #784080) were used; • 2) the Anti-TNFalpha Cryptate conjugate and the Anti-TNFalpha XL665 conjugate were diluted 1:20 in Reconstitution Buffer; • 3) a 1:1 mixture of 5 μl/well Anti-TNFalpha Cryptate conjugate and 5 μl/well Anti-TNFalpha XL665 conjugate was prepared; • 4) 10 μl/well HTRF dilution mastermix were added to 10 μl of transferred supernatant samples in proxiplates; • 5) The plates were incubated for 3 hrs at rt in the dark; and • 6) the levels of TNFalpha production was measured using an Envision plate reader (665 nm (emmission)/590 nm (excitation)).

Row | IC50 [µM] | Structure (SMILES)
1 | 8.23 | Cn1ncc2c(N3CCc4c(cnn4CC45CCC(N)(CC4)CC5)C3)nc(N)nc21 [compound 11, 4-(1-((4-aminobicyclo[2.2.2]octan-1-yl)methyl)-6,7-dihydro-1H-pyrazolo[4,3-c]pyridin-5(4H)-yl)-1-methyl-1H-pyrazolo[3,4-d]pyrimidin-6-amine]
2 | > 10 | Cn1ncc2c(N3CCc4nn(CC56CCC(N)(CC5)CC6)cc4C3)nc(N)nc21 [compound 12, 4-(2-((4-aminobicyclo[2.2.2]octan-1-yl)methyl)-6,7-dihydro-2H-pyrazolo[4,3-c]pyridin-5(4H)-yl)-1-methyl-1H-pyrazolo[3,4-d]pyrimidin-6-amine]
3 | > 10 | Cc1c2c(nn1CC13CCC(N)(CC1)CC3)CCN(c1nc(N)nc3c1cnn3C)C2 [compound 14, 4-(2-((4-aminobicyclo[2.2.2]octan-1-yl)methyl)-3-methyl-6,7-dihydro-2H-pyrazolo[4,3-c]pyridin-5(4H)-yl)-1-methyl-1H-pyrazolo[3,4-d]pyrimidin-6-amine]
